Where two headings read alike, the source gives them in different places.
Legend:
peripheral nerve blocks = settings: cited from earlier work
patient having PTSD = settings: patient treated with CB without and with clonidine
Source text: The procedure involved a local anesthetic mixed with clonidine delivered by a shot in the patient's neck in a procedure that is similar to an epidural given to women in labor.

[1] = cited from earlier work
dogs = settings: cited from earlier work
PTSD = settings: Navy study, ultrasound guidance, not xray guidance; cited from earlier work
[2] = group 1: left SGB, 0.5% mepivacaine 1 ml

With Clc1cccc(Cl)c1N=C1NCCN1 [clonidine] as the molecule, how does the “duration of analgesia and anesthesia” value (peripheral nerve blocks; adjunct to intermediate-acting local anesthetics for some peripheral nerve blocks) read?
The value was “improves”.

What about the side-effects (peripheral nerve blocks; doses up to 150 µg) of the same molecule?
Its side-effects is “limited”.

What about the “patient-reported result with clonidine over the local anesthetic alone” value (patient having PTSD) of the same molecule?
Its value is “significantly more effective result”.

What does the source list for CCCCN1CCCCC1C(=O)Nc1c(C)cccc1C (centres unmarked) [bupivacaine]?
solubility ([1]; 95 percent ethanol): freely soluble; solubility ([1]; chloroform or acetone): slightly soluble; solubility ([1]; water): soluble

Which “left brachial artery blood flow (BABF) after left SGB” value (dogs; group 1: 0.5% mepivacaine 1 ml) does the source give for Cc1cccc(C)c1NC(=O)C1CCCCN1C (centres unmarked) [mepivacaine] here?
The value was “increased significantly”.

What about the “right BABF after left SGB” value (dogs; group 1: 0.5% mepivacaine 1 ml) of the same molecule?
Its value is “decreased significantly”.

What about the “heart rate (HR)” value (dogs; [2]) of the same molecule?
Its value is “no significant change”.

What about the “mean arterial pressure (MAP)” value (dogs; [2]) of the same molecule?
Its value is “no significant change”.

With CCCN1CCCC[C@H]1C(=O)Nc1c(C)cccc1C [Ropivacaine, ropivacaine] as the molecule, how does the RCSGI versus placebo (PTSD) read?
Its RCSGI versus placebo is “no difference”.

From US9603843B2, “Kits and methods for treating post traumatic stress disorder (PTSD) and hot flashes” (CAD MEDICAL SOLUTIONS, LLC, priority 2013, dated 2017)
